Results on two compounds are retold here after patent publication EP2601945A1 (Thomale, Jürgen, priority 2011, dated 2013).

The subject of data set [1] is hearing capability. The experiment in a line: BAER hearing test after repetitive cis-platin with or without DPH, or DPH alone. The method, then:
Both groups received additional i.p. injections with saline solution (500 µl) in order to protect the mice from kidney injury. […] Like in the clinical BAER tests for humans, the hearing threshold was determined as the disappearance of wave V. This value was converted into percentage of hearing capability as compared to the untreated controls (dB to %). […] The mean value of the untreated mice was set as 100 %.

Data set [2] concerns human cancer cell lines established from tumors (lung, bladder, testis). The data set can be described thus: Co-application of cis-platin and DPH to cancer cell lines: DNA adducts by ICA. The data set is classed as cell-based. The note with it: cis-platin alone or in combination with DPH.
The test system is the same in data set [3]. The data set can be described thus: Co-application of cis-platin and DPH to cancer cell lines: apoptosis by Annexin V staining and FACS analysis. The note with it: cis-platin alone or in combination with DPH. The data set is classed as cell-based. Background: In flow cytometry, cells or beads pass a laser one at a time.
Data set [4] deals with Pt-GG adducts in DNA of lung tumor cells. The experiment in a line: ICA of Pt-GG adducts in primary lung tumor cells. The data set is classed as in vivo, mice. An excerpt:
(§1) Oncogenic mutations in the gene encoding the small GTPase K-ras are among the most frequently detected alterations in human lung cancer and approximately 30 % of all cases of human non-small cell lung cancer (NSCLC) carry such an activated K-ras allele with mutations predominantly located in codons 12, 13 or 61. Based on this observation a mouse model for NSCLC was recently established (Sweet-Cordero et al., 2004). The local activation of a silent transgenic K-rasG12D allele in these mice is achieved by intratracheal adenoviral transfection with the Cre recombinase (AdCre). The Cre recombinase cuts out a "stop" cassette and allows for expression of the oncogenic K-ras protein in transfected lung cells. When the initiation is performed at the age of 8 weeks, mice are diagnosed 16 weeks later with lung tumors at 100 % penetrance. The morphology and molecular characteristics of the tumors are very similar to human NSCLC and they respond with regression to chemotherapy with cis-platin.
Mice bearing K-rasG12D -induced lung tumors were divided into two groups for acute high dose and for chronic low dose treatment. Animals received mocktreatment with PBS or cis-platin alone or cis-platin plus treatment with DPH. […] All mice were sacrificed 24 hours after the last treatment and cochleae, kidneys and lungs were resected for analysis of DNA adduct accumulation.

For data set [5], the system named is K-rasG12D -induced lung tumors. The data set can be described thus: Tumor growth in the K-ras mouse model of NSCLC (H&E lung sections, Bioquant image analysis). It counts as in vivo, mice. The note with it: for tumor number: not statistically significant.
From the text: as §1, with “cells.” for “cells. When the initiation is performed at the age of 8 weeks, mice are diagnosed 16 weeks later with lung tumors at 100 % penetrance. The morphology and molecular characteristics of the tumors are very similar to human NSCLC and they respond with regression to chemotherapy with cis-platin.”
A cohort of tumor-bearing mice was randomly divided into three subgroups receiving different treatment regimens. Group one (mock treatment control) received i.p. injections once per week with PBS for 4 weeks. […] Mice were sacrificed 5 days after the last dose; lungs were dissected and prepared for paraffin sections. Following H&E staining for morphological structures, the percentage tumor burden, the number of tumors per lung and the average tumor size was determined microscopically (Figure 13 B-D, 14). […] For quantitative analysis the Bioquant image analysis software was used to blindly and randomly quantify the area of all lung tumors and the total lung surface area in 4 lung sections per mouse.

The next data set deals with Kras/p53 deficient mice. The experiment in a line: Survival upon repetitive cis-platin treatment. The data set is classed as in vivo. The note with it: repetitive cis-platin 9 mg/kg in combination with DPH 50 mg/kg versus cis-platin alone (Figure 16).
The subject of data set [6] is outer hair cells and stria vascularis marginal cells. The experiment in a line: Electron microscopy of cochlear cell micromorphology. It counts as in vivo, mice. The note with it: four times.
Data set [7] relates to hearing capability. The experiment in a line: BAER hearing test in XPA-/- and wild type mice after low dose cis-platin. The note with it: cis-platin cumulative dose 3.5 mg/kg within two weeks, NER-deficient XPA-/- mice.
[8] abbreviates: cis-platin 7 mg/kg once per week for 4 weeks, DPH 57 mg/kg.
Where [9] appears, read: cis-platin in combination with DPH (57 mg/kg 30 minutes before each dose).
Setting [10] is: cis-platin alone (7 mg/kg once per week for 4 weeks).

The structures appear in SMILES notation. “And” between values parts separate entries of the source, which are not always exact repeats. Equal entries are not always repeated. “Also recorded” adds a separate entry of the source.

Consider `CN(C)CCOC(c1ccccc1)c1ccccc1` [DPH, diphenhydramine], for which, in the data set on hearing capability [1] (DPH alone 57 mg/kg repetitively, no cis-platin), the “hearing ability throughout the experiment” value was “did not show any difference”. In the data set with hearing capability [1] (DPH alone, single dose 57 mg/kg, BAER repeated 24 hours later), the “hearing sensitivity 24 hours later” value is on record as “regained their normal hearing sensitivity”. Also, the hearing loss with hearing capability [1] (cis-platin cumulated dose 20 mg/kg in combination with DPH 57 mg/kg 30 minutes before each dose) is listed as 20%. Also, the “mean hearing capability, percentage of untreated controls” value with hearing capability [1] (cis-platin cumulated dose 40 mg/kg plus DPH 57 mg/kg before each dose) was “about 70%”. Also, the “effect on the formation of DNA adducts (ICA)” value in data set [2] is recorded as “no inhibitory effect”. Moreover, the “effect on the induction of apoptosis” value in data set [3] is on record as “no inhibitory effect”. In addition, in data set [4] (DPH 57 mg/kg 30 minutes prior to cis-platin, acute 10 mg/kg or chronic 4 x 5 mg/kg), the “reduction of Pt-GG levels in lung tumor cells by DPH co-treatment” value is recorded as “no reduction”. Moreover, in data set [5] (setting [8]), the “average tumor size, cis-platin alone versus cis-platin plus inhibitor group” value is listed as “no difference” and the “mean tumor burden in the lung, cis-platin alone versus in combination with DPH” value is reported as “no significant difference”. Also, in data set [5] (setting [9]), the “reduction of average tumor size” value is “about 50%” and the “reduction of tumor burden” value was “about 80%”. In addition, the tumor number result in data set [5] (cis-platin plus DPH versus PBS) is “reduced”. The survival entry in the data set with Kras/p53 deficient mice is recorded as “improved survival rates”. Moreover, the “micromorphology of outer hair cells and marginal cells” value (shortened to “micromorphology”) in data set [6] (DPH alone 57 mg/kg every second day) is “No signs of autophagy or necrosis”. Also, in data set [6] (cis-platin 5 mg/kg plus DPH 57 mg/kg every second day), the “micromorphology” value is “much less frequent and properly shaped; also recorded: rare autophagosome-like structures”.
On to `N.N.[Cl][Pt][Cl]` [cis-platin, cis-diaminedichloro-platinum(II)], for which the “hearing capability, percentage of controls” value with hearing capability [1] (cis-platin alone 5 mg/kg every second day, cumulated dose 20 mg/kg, BAER 24 h after last treatment) is given as “about 50%”. Besides, the “reduction of hearing capacity (BAER)” value with hearing capability [1] (cis-platin treatment alone, mice (description)) is “about 45%”. In data set [4] (cis-platin 4 x 5 mg/kg every second day versus 10 mg/kg once), the “adduct levels in lung tumor cells, repetitive treatment compared to single high dose treatment” value was “about two-fold higher”. In data set [5] (setting [10]), the “reduction of average tumor size” value was “about 50%” and the “reduction of tumor burden” value is reported as “about 80%”. For the same compound, in data set [5] (cis-platin alone versus PBS), the tumor number entry is “reduced”. In addition, in data set [6] (cis-platin alone 5 mg/kg every second day), the “micromorphology” value is “necrotic cell death”. Further, the “reduction of hearing capability (BAER), XPA-/- mice” value in the data set on hearing capability [7] is 45% and ~50%.
